Source: US4912199A, “Oligopeptide anticancer and antiviral agents” (The Governors of the University of Alberta, priority 1987, dated 1990)
Converted amounts (≈) assume the structure as drawn. Where two headings read alike, the source gives them in different places.

Assays:
Vaccinia = format: cell-based, vaccinia virus; details: for minimum inhibitory concentration against vaccinia virus: text of Examples 3(A) and 3(B), hydrochloride
Herpes simplex-1 = test: Antiviral test, minimum inhibitory concentration in primary rabbit kidney cell cultures; format: cell-based; details: 50% kill of the viruses in primary rabbit kidney cell cultures
Herpes-2 = test: as above; format: cell-based; details: 50% kill of the viruses in primary rabbit kidney cell cultures
[1] = test system: primary rabbit kidney cell cultures; test: Minimal cytotoxic concentration in the antiviral test
Experimental: The antiviral properties of the compounds listed in Table 1 were tested to determine the minimum inhibitory concentration to achieve a 50% kill of the viruses in primary rabbit kidney cell cultures.

L1210 murine Leukemia = test: Anticancer properties, 50% cell kill (ID50); format: cell-based
[2] = test system: FM3A murine mammary tumor; test: Anticancer properties, 50% cell kill (ID50); format: cell-based
RAJI human B lymphoblast = test: Anticancer properties, 50% cell kill (ID50); format: cell-based
From the text: RAJI human B lymphoblast
FIG. 1 relates to such acitivity for the cell line MOLT/4F, human T lymphoblast. FIG. 2 related to the tumor cell lines of Raji, human B lymphoblast; all values being expressed in ID50 values in arbitrary units. […] The general formula for the compounds of this invention as tested in FIGS. 1 and 2 are of formula I, wherein A is represented by: [drawing 14] m is 1; n is 1 and Het is pyrrole, R is represented by the formula COk --(CH2)l --CO where l is equal to 0, 1, 2, 3, 4, 5, 6, 7 or 8 and k is equal to 0 or 1.

P388 murine leukemia = test: Antileukemic properties, ID50 vs P388 leukemia; format: cell-based; details: 25,000 cells per well; 72 hours incubation at 37° C.
Experimental: The compounds of the following Table 3 were prepared in accordance with processes of this invention.

[3] = test system: MOLT/4F human T lymphoblast; test: Anticancer properties, 50% cell kill (ID50); format: cell-based
[4] = 50% kill of the viruses in primary rabbit kidney cell cultures

| SMILES | Minimum Inhibitory Conc. Herpes simplex-1 (Herpes simplex-1) [µg/mL] | Minimum Inhibitory Conc. Herpes-2 (Herpes-2) [µg/mL] | Minimum Inhibitory Conc. L1210 (ID50) (L1210 murine Leukemia) [µg/mL] | Minimum Inhibitory Conc. FM3A (ID50) [2] [µg/mL] | Minimum Inhibitory Conc. RAJI (ID50) (RAJI human B lymphoblast) [µg/mL] | ID50 vs P388 leukemia (P388 murine leukemia) [µg/mL] | Minimum Inhibitory Conc. Vaccinia (Vaccinia; [4]) [µg/mL] | Minimal Cytotoxic Conc. [1] [μg/m] | also measured |
| --- | --- | --- | --- | --- | --- | --- | --- | --- | --- |
| Cl.Cn1cc(NC(=O)c2cc(NC(=O)C[N+](C)(C)C)cn2C)cc1C(=O)NCCC(=N)N.[Cl-] [3(B), 1-Methyl-4-(1-methyl-4-trimethylammonium-acetamidopyrrole-2-carboxamido)pyrrole-2-carboxamidopropionamidine chloride hydrochloride] |  |  |  |  |  |  |  |  | minimum inhibitory concentration against vaccinia virus (Vaccinia): 300 µg/mL |
| Cn1cc(NC(=O)c2cc(NC(=O)c3cc(NC=O)cn3C)cn2C)cc1C(=O)NCCC(=N)N [Distamycin, distamycin, reference compound] | 70 | 70 | 27.1 ± 4.7 | 30.6 ± 2.4 | 23.7 ± 3.69 | 20 (≈ 41.5 µM) |  |  | Minimum Inhibitory Conc. Vaccinia (Vaccinia): 0.2 µg/mL; Minimal Cytotoxic Conc. ([1]; primary rabbit kidney cell cultures): 200 μg/m |
| Cl.Cn1cc(NC(=O)c2cc(NC(=O)C[N+](C)(C)C)cn2C)cc1C(=O)NCCC(=N)N.[Cl-] [Example 3(A), 1-Methyl-4-(1-methyl-4-trimethylammonium-acetamidopyrrole-2-carboxamido)pyrrole-2-carboxamidopropionamidine chloride hydrochloride] |  |  |  |  |  |  |  |  | minimum inhibitory concentration against vaccinia virus (Vaccinia): 20 µg/mL |
| Cl.Cl.Cn1cc(NC(=O)c2cc(NC(=O)CCCCCCC(=O)Nc3cc(C(=O)Nc4cc(C(=O)NCCC(=N)N)n(C)c4)n(C)c3)cn2C)cc1C(=O)NCCC(=N)N [m=1 n=1 R = CO(CH2)6 CO] | 10 | 10 |  |  |  | 0.70 | 0.2 | ≥ 10 |  |
| Cl.Cl.Cn1cc(NC(=O)c2cc(NC(=O)CCCCCCCC(=O)Nc3cc(C(=O)Nc4cc(C(=O)NCCC(=N)N)n(C)c4)n(C)c3)cn2C)cc1C(=O)NCCC(=N)N [m=1 n=1 R = CO(CH2)7 CO] | 40 | 40 |  |  |  | 0.75 | 0.2 | ≥ 100 |  |
| Cl.Cl.Cn1cc(NC(=O)c2cc(NC(=O)CC(=O)Nc3cc(C(=O)Nc4cc(C(=O)NCCC(=N)N)n(C)c4)n(C)c3)cn2C)cc1C(=O)NCCC(=N)N [m=1 n=1 R = COCH2CO] |  |  | 28.5 ± 9.7 | 5.87 ± 2.23 | 3.39 ± 0.69 | 0.91 |  |  | Minimum Inhibitory Conc. MOLT/4F (ID50) [3]: 2.85 ± 0.6 µg/mL |
| Cl.Cl.Cn1cc(NC(=O)c2cc(NC(=O)/C=C/C(=O)Nc3cc(C(=O)Nc4cc(C(=O)NCCC(=N)N)n(C)c4)n(C)c3)cn2C)cc1C(=O)NCCC(=N)N [m=1 n=1 R = COCH CHCO (trans)] |  | 10 |  |  |  |  | 2 | ≥ 40 |  |
| Cl.Cl.Cn1cc(NC(=O)c2cc(NC(=O)CCCCCCCCC(=O)Nc3cc(C(=O)Nc4cc(C(=O)NCCC(=N)N)n(C)c4)n(C)c3)cn2C)cc1C(=O)NCCC(=N)N [m=1 n=1 R = CO[CH2]8CO] |  |  | 4.21 ± 1.52 | 22.1 ± 11.1 | 3.34 ± 0.44 | 0.98 |  |  | Minimum Inhibitory Conc. MOLT/4F (ID50) [3]: 2.97 ± 0.4 µg/mL |
| Cl.Cl.Cn1cc(NC(=O)c2cc(NC(=O)Nc3cc(C(=O)Nc4cc(C(=O)NCCC(=N)N)n(C)c4)n(C)c3)cn2C)cc1C(=O)NCCC(=N)N [m=1 n=1 l=0 k=0] |  |  |  |  |  | 8.0 |  |  |  |
| Cl.Cl.Cn1cc(NC(=O)c2cc(NC(=O)CCCC(=O)Nc3cc(C(=O)Nc4cc(C(=O)NCCC(=N)N)n(C)c4)n(C)c3)cn2C)cc1C(=O)NCCC(=N)N [m=1 n=1 l=3 k=1] |  |  |  |  |  | 6.4 |  |  |  |
| Cl.Cl.Cn1cc(NC(=O)c2cc(NC(=O)CCCCC(=O)Nc3cc(C(=O)Nc4cc(C(=O)NCCC(=N)N)n(C)c4)n(C)c3)cn2C)cc1C(=O)NCCC(=N)N [m=1 n=1 l=4 k=1] |  |  |  |  |  | 1.05 |  |  |  |
| Cl.Cl.Cn1cc(NC(=O)c2cc(NC(=O)CCCCCC(=O)Nc3cc(C(=O)Nc4cc(C(=O)NCCC(=N)N)n(C)c4)n(C)c3)cn2C)cc1C(=O)NCCC(=N)N [m=1 n=1 l=5 k=1] |  |  |  |  |  | 4.4 |  |  |  |
| Cl.Cl.Cn1cc(NC(=O)c2cc(NC(=O)c3cc(NC(=O)CCC(=O)Nc4cc(C(=O)Nc5cc(C(=O)Nc6cc(C(=O)NCCC(=N)N)n(C)c6)n(C)c5)n(C)c4)cn3C)cn2C)cc1C(=O)NCCC(=N)N [m=1 n=2 R = CO(CH2)2 CO] | 4 | 4 | > 100 | 4.29 ± 1.12 | 4.14 ± 8.4 |  | 4 | ≥ 40 | Minimum Inhibitory Conc. MOLT/4F (ID50) [3]: 100 µg/mL |
